Data on seven compounds can be found in patent publication EP4663632A1, “COMPOUNDS USEFUL FOR THE MODULATION OF THE ACTIVITY OF STING” (Sulis Therapeutics ApS, priority 2024, dated 2025).

Each structure is given as a SMILES string.

Assay [1] concerns the target T1, C-terminal domain (CTD) of human STING (Homo sapiens, UniProt Q86WV6). Put plainly: STING binding FP assay I. Details: recombinant human STING protein (155-379). As to conditions: 35 nM STING, 4 nM Probe 1. The protocol:
(§1) The interaction between molecules and the C-terminal domain (CTD) of human STING was evaluated using a competition binding assay. In this assay, recombinant human STING protein (155-379) and a STING binding fluorescent probe were employed. Upon binding of the probe to STING, the rotation of the fluorescent probe is slowed due to the larger molecular size of the protein-bound complex. As a result, emitted light retains its plane of polarization, leading to an increase in fluorescence polarization. Molecules competing for the probe binding site displace the probe, which leads to rapid randomization of the polarization plane of the emitted light and a subsequent decrease in measured fluorescence polarization signal. Change in polarization was measured, allowing a comparative evaluation of the binding affinities of different compounds to the target protein.
(§2) The assay was performed in 96-well plates (ThermoFisher, cat.# 237108) containing 100µl : 10 µL test compound in 10% DMSO and buffer A (150 mM NaCl, 50 mM HEPES pH 7.5, 1 mM DTT) + 90 µL prepared master mix solution of: 4 nM fluorescein-labelled STING ligand (Probe 1; synthesis described above) in buffer A + 0.055% Tween-20 (v/v) and 35 nM STING in buffer A. Post mixing, plates were agitated at 600rpm and incubated for 20 min at room temperature. Subsequent measurements of the fluorescence polarization signal were made on a BioTek Synergy-H1 plate reader, using a polarization filter; Exc: 485/20 nm, Em: […]) with a gain-setting of 75. IC50 values were determined using a standard non-linear regression four-parameter curve fit in Graphpad Prism.

Assay [2] addresses T1, C-terminal domain (CTD) of human STING. Kind of assay: STING binding FP assay II. Details: recombinant human STING protein (155-379). The following applies: 7 nM STING. Here is the method: as §1, §2
The procedure for STING binding FP assay II is the same as described for STING binding FP assay I, except for a lower STING concentration. In STING binding FP assay II, a concentration of 7 nM STING in buffer A was used.

In assay [3] the target is T2, STING (Homo sapiens, UniProt Q86WV6). Kind of assay: Western Blot analysis for S1 STING ligand antagonism in primary human skin fibroblasts. In kind it is cell-based. On the set-up: host or cells: HFF-1 human foreskin fibroblasts. As to conditions: 5 µM; 2 h or 1 h before, simultaneously with, or 15 minutes after 0.3 µM diABZI. Here is the method:
To assess whether S1 STING ligands inhibit STING activation, primary human skin fibroblasts (Figure 5) or HFF-1 cells (Figure 6) were treated with various compounds which comprise only an S1 ligand domain and a Linker domain before undergoing Western Blot analysis as described below. Compounds A9, A11, A26 and A30 used in the following experiments share a common S1 ligand, which is also shared by Example compounds 1, 3, 5-29, 33-38.
Cells were incubated with A9 or A11 for 1 or 2 hours before addition of diABZI c3, treated with test compound and diABZI c3 simultaneously, or treated with A9 or A11 after 15 minutes incubation with diABZI c3. As a control, cells were also treated with diABZI c3 alone.
(Immunoblotting shows a protein as a band on a membrane.)

Assay [4] addresses T2, STING. Put plainly: Western Blot analysis of inhibition of STING activation in HFF-1 cells. In kind it is cell-based. Details: host or cells: HFF-1 human foreskin fibroblasts. The following applies: for STING, TBK1 and IRF1 phosphorylation: 2 h or 5 h. The protocol:
To assess whether S1 STING ligands inhibit STING activation, primary human skin fibroblasts (Figure 5) or HFF-1 cells (Figure 6) were treated with various compounds which comprise only an S1 ligand domain and a Linker domain before undergoing Western Blot analysis as described below.
The cells were lysed and analysed on WB. […] The WB membrane was probed for p-STING, STING, p-IRF3, p-TBK1, and Vinculin.

The target in assay [5] is T2, STING. Kind of assay: Western Blot analysis for STING degradation in H596 cells. It is filed as cell-based. As to conditions: 24h; reference protein beta-actin. The protocol:
For cell lysing for Western Blot analysis cell culture plates were brought to ice, supernatant was removed by aspiration and cells washed 2x in ice-cold DPBS. Cells were lysed in 65 µL of RIPA buffer supplemented with cOmplete ULTRA Tablets protease inhibitor cocktail, PIERCE Phosphatase inhibitor mini tablet, Benzonase and 10mM NaF for 20 min on ice. Lysates were collected, cleared by centrifugation (13000xg for 10 min at 4°C). Samples were either analysed directly or stored at -80°C until analysis.
For Western Blotting, total protein concentration in each lysate was determined using PIERCE Gold BCA Assay kit according to manufactures protocol. 6 µg of total protein was mixed with 2x Laemmli buffer containing DTT, boiled for 5 min at 95°C, cooled on ice and loaded into each well of a 4-20% Criterion TGX gel. Proteins were separated by electrophoresis, by running for 1h at 150V. After separation proteins were blotted onto a PVDF membrane by semi-dry transfer using Trans-Blot turbo system at pre-defined BioRad MIDI protocol; 25V, 1A (fixed) for 30 min. Membranes were blocked for 1h in 5% skim milk in TBS-T20 on a rocker at room temperature followed by washing and exposure to primary antibodies against human STING 1:1000 (Cell Signalling, #13647) or loading controls Vinculin 1:1000 (Cell Signalling, #13901) or beta-Actin 1:10000 (Sigma, A5441) all diluted in 5% BSA in TBS-T20. Membranes were probed over night at 4°C on a rocker. Membranes were washed 3x in TBS-T20 followed by exposure to secondary HRP-conjugated anti-rabbit antibody or HRP-conjugated anti-mouse antibody diluted 1:10000 in 5% skim milk in TBS-T20 as appropriate. Membranes were incubated for 1h at room temperature on a rocker, then washed 3x in TBS-T20.
For generating DC50 values, the intensity of individual bands was measured using imaged and expression levels were calculated as a ratio of STING intensities vs. Reference protein intensities and normalized to DMSO control. The normalized ratios were plotted on a XY curve in GraphPad Prism where DC50 was estimated using a 4-parameter non-linear regression fitting curve.
To assess STING degradation in H596 cells (ATCC, HTB-178) cells were seeded at a density of 100.000 cells/well in 24-well Nunclon Delta surface treated culture plate in RPMI-1640 growth medium (supplemented with 10% FBS, 1% Pen-strep). Cells were incubated over-night at 37°C 5% CO2 to allow adhesion. Next day growth medium was renewed and a 5x concentration of test compounds (2.5% DMSO) diluted in growth medium were added to the appropriate well. Final DMSO concentration was 0.5%. Cell culture plates were returned to the incubator for additional 24h. Final test compound concentrations were 0.22 µM, 0.67 µM, 2 µM and 6 µM.
For cell lysis, western blotting and data analysis, the methods described above for HFF-1 cells were applied.

In assay [6] the target is T1, C-terminal domain (CTD) of human STING. Put plainly: STING binding FP assay III. On the set-up: recombinant human STING protein (155-379). As to conditions: 10 nM STING (FP assay III according to the text); read-out: STING binding FP assay II, IC50. The protocol: as §1, §2
The procedure for STING binding FP assay III is the same as described for STING binding FP assay I, except for a lower STING concentration. In STING binding FP assay III, a concentration of 10 nM STING in buffer A was used.

T1 sequence (Q86WV6 155-379): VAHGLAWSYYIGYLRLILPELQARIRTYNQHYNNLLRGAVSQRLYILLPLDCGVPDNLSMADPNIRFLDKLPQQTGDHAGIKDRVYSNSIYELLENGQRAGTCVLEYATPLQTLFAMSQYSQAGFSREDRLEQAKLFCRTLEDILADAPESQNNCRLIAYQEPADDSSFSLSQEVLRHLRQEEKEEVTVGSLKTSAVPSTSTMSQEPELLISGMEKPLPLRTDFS
T2 sequence (Q86WV6 whole entry, the tested form may be a part): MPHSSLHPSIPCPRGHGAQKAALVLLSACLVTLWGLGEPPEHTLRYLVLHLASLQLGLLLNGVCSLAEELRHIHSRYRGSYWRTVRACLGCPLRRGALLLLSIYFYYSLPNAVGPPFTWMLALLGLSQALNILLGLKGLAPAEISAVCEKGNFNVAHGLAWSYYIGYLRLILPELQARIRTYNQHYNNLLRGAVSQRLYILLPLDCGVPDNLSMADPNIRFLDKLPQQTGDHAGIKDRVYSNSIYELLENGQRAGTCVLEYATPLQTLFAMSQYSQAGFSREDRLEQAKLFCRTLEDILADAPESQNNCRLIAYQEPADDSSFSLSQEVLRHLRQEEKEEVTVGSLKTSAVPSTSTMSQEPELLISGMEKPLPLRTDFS

As usually defined, the IC50 is the midpoint of a concentration-inhibition curve. With `CCn1nc(C)cc1C(=O)N=c1n(C)c2cc(C(N)=O)ccc2n1CCC(CCn1c(=NC(=O)c2cc(C)nn2CC)n(C)c2cc(C(N)=O)ccc21)OCC(=O)O` (stereo not drawn) [Building Block G-4, (3-{5-Carbamoyl-2-[(1-ethyl-3-methyl-5-pyrazolyl)carbonylimino]-3-methyl-2,3-dihydro-1H-1,3-benzimidazol-1-yl}-1-(2-{5-carbamoyl-2-[(1-ethyl-3-methyl-5-pyrazolyl)carbonylimino]-3-methyl-2,3-dihydro-1H-1 ,3-benzimidazol-1-yl}ethyl)propoxy)acetic acid], the IC50 in assay [1] is below 30 nM.

For `CCn1nc(C)cc1C(=O)N=c1n(C)c2cc(C(N)=O)ccc2n1CCC(CCn1c(=NC(=O)c2cc(C)nn2CC)n(C)c2cc(C(N)=O)ccc21)OCC(=O)NCCOCCOCCOCCOCC(=O)N[C@H](C(=O)N1C[C@H](O)C[C@H]1C(=O)NCc1ccc(-c2scnc2C)cc1)C(C)(C)C` (stereo partly drawn) [Example 5], the figures for the IC50 in assay [1] and in assay [2] were below 30 nM and 2.4 nM, respectively.

As to `CCn1nc(C)cc1C(=O)N=c1n(C)c2cc(C(N)=O)ccc2n1CCC(CCn1c(=NC(=O)c2cc(C)nn2CC)n(C)c2cc(C(N)=O)ccc21)OCC(=O)N1CCC[C@H]1c1cccc(OC)c1` (stereo partly drawn) [Example A11, 1-(3-{2-[(S)-2-(3-Methoxyphenyl)-1-pyrrolidinyl]-2-oxoethoxy}-5-{5-carbamoyl-2-[(1-ethyl-3-methyl-5-pyrazolyl)carbonylimino]-3-methyl-2,3-dihydro-1H-1,3-benzimidazol-1-yl}pentyl)-2-[(1-ethyl-3-methyl-5-pyrazolyl)carbonylimino]-3-methyl-2,3-dihydro-1H-1,3-benzimidazole-5-carboxamide], on STING [3], the LC3B lipidation entry was “reduced LC3B lipidation”, the “P-STING intensity (activation of STING)” value was “reduced intensity of P-STING” and the P-TBK1 intensity entry was “reduced P-TBK1 intensity”. Besides, at STING [4] (5 µM for 15 min prior to 300 nM diABZI), the “STING, TBK1 and IRF1 phosphorylation” value is listed as “lower compared to cells treated with diABZI c3 alone”. Also, on STING [4] (5 µM for 15 min prior to 8 µg/mL cGAMP), the “STING, TBK1 and IRF1 phosphorylation” value is listed as “lower compared to cells treated with cGAMP alone”. Also, the “phosphorylation of STING, IRF1 or TBK1 (agonism)” value at STING [4] (compound as single agent, no activation) is recorded as “no phosphorylation of STING, IRF1 or TBK1 was observed”.

The DC50 is the concentration giving 50% degradation. Turning to `CCn1nc(C)cc1C(=O)N=c1n(C)c2cc(C(N)=O)ccc2n1CCC(CCn1c(=NC(=O)c2cc(C)nn2CC)n(C)c2cc(C(N)=O)ccc21)OCC(=O)NCCOCCOCCOCCOCCC(=O)N(C)CCOCCOCCOCCOCCC(=O)N[C@H](C(=O)N1C[C@H](O)C[C@H]1C(=O)N[C@@H](C)c1ccc(-c2scnc2C)cc1)C(C)(C)C` (stereo partly drawn) [Example 27], at STING [5], the DC50 was below 200 nM. Besides, in assay [6], the IC50 was 4.5 nM.

`CCn1nc(C)cc1C(=O)N=c1n(C)c2cc(C(N)=O)ccc2n1CCC(CCn1c(=NC(=O)c2cc(C)nn2CC)n(C)c2cc(C(N)=O)ccc21)OCC(=O)NCCOCCOCCOCCNc1cccc2c1C(=O)N(C1CCC(=O)NC1=O)C2=O` (stereo not drawn) [Example 1, 1-[3-({N-2-[2-(2-{2-[2-(2,6-Dioxo-3-piperidyl)-1,3-dioxo-4-isoindolinylamino]ethoxy}ethoxy)ethoxy]ethylcarbamoyl}methoxy)-5-{5-carbamoyl-2-[(1-ethyl-3-methyl-5-pyrazolyl)carbonylimino]-3-methyl-2,3-dihydro-1H-1,3-benzimidazol-1-yl}pentyl]-2-[(1-ethyl-3-methyl-5-pyrazolyl)carbonylimino]-3-methyl-2,3-dihydro-1H-1 ,3-benzimidazole-5-carboxamide]: the IC50 in assay [1] is below 30 nM.

With `CCn1nc(C)cc1C(=O)N=c1n(C)c2cc(C(N)=O)ccc2n1CCC(CCn1c(=NC(=O)c2cc(C)nn2CC)n(C)c2cc(C(N)=O)ccc21)OCC(=O)NCCOCCOCCOCCOCCNc1cccc2c1C(=O)N(C1CCC(=O)NC1=O)C2=O` (stereo not drawn) [Example 29, 1-{3-[(N-2-{2-[2-(2-{2-[2-(2,6-Dioxo-3-piperidyl)-1,3-dioxo-4-isoindolinylamino]ethoxy}ethoxy)ethoxy]ethoxy}ethylcarbamoyl)methoxy]-5-{5-carbamoyl-2-[(1-ethyl-3-methyl-5-pyrazolyl)carbonylimino]-3-methyl-2,3-dihydro-1H-1 ,3-benzimidazol-1-yl}pentyl}-2-[(1-ethyl-3-methyl-5-pyrazolyl)carbonylimino]-3-methyl-2,3-dihydro-1H-1,3-benzimidazole-5-carboxamide], the results for the IC50 in assay [1] and in assay [2] were below 30 nM and 1.8 nM, respectively.

As for `CCn1nc(C)cc1C(=O)N=c1n(C)c2cc(C(N)=O)ccc2n1CCC(CCn1c(=NC(=O)c2cc(C)nn2CC)n(C)c2cc(C(N)=O)ccc21)OCC(=O)NCCOCCOCCOCC(=O)N[C@H](C(=O)N1C[C@H](O)C[C@H]1C(=O)NCc1ccc(-c2scnc2C)cc1)C(C)(C)C` (stereo partly drawn) [Example 28], the IC50 in assay [1] was below 30 nM.
